Measured values: ChEMBL document CHEMBL2021772, “Synthesis and antitumor-evaluation of 1,3,4-thiadiazole-containing benzisoselenazolone derivatives” (Bioorg Med Chem Lett, 2012)

Key:
[1] = tested on: A549; experiment: Antiproliferative activity against human A549 cells after 48 hrs by CCK-8 assay; type: functional, cell-based; details: A549, 48 h
[2] = Antiproliferative activity against human […] cells after 48 hrs by CCK-8 assay; type: functional, cell-based
[3] = tested on: MCF7; experiment: Antiproliferative activity against human MCF7 cells after 48 hrs by CCK-8 assay; type: functional, cell-based; details: MCF7, 48 h
[4] = Toxicity in rat; type: organism-based; details: in vivo

SMILES | IC50 [1] [µM] | IC50 [2] [µM] | IC50 [3] [µM] | LD50 [4] [mg/kg]
O=c1c2ccccc2[se]n1-c1nnc(-c2cc([N+](=O)[O-])cc([N+](=O)[O-])c2)s1 | 17.9 | 21.6 | 37.8 | 
COc1ccc(-c2nnc(-n3[se]c4ccccc4c3=O)s2)cc1 | 5.93 | 16.4 | 10 | 
Cc1ccc(-c2nnc(-n3[se]c4ccccc4c3=O)s2)cc1 | 13.4 | 16.6 | 18.7 | 
O=c1c2ccccc2[se]n1-c1nnc(-c2cccc([N+](=O)[O-])c2)s1 | 16.1 | 27.3 | 29.2 | 
O=c1c2ccccc2[se]n1-c1nnc(-c2ccc(Cl)cc2)s1 | 10.4 | 24.4 | 19.4 | 
COc1ccccc1-c1nnc(-n2[se]c3ccccc3c2=O)s1 | 3.12 | 14.3 | 3.92 | 
O=c1c2ccccc2[se]n1-c1nnc(-c2ccccc2Br)s1 | 12.7 | 27.4 | 59.4 | 
O=c1c2ccccc2[se]n1-c1nnc(-c2ccccc2[N+](=O)[O-])s1 | 11.4 | 22.5 | 31.2 | 
O=c1c2ccccc2[se]n1-c1nnc(-c2ccccc2)s1 | 2.48 | 20.5 | 4.02 | 
COc1cc(-c2nnc(-n3[se]c4ccccc4c3=O)s2)cc(OC)c1OC | 3.24 | 7.15 | 3.44 | 
O=c1c2ccccc2[se]n1-c1ccccc1 [EBSELEN] | 3.75 | 18.3 | 15 | 6180
Cc1ccccc1-c1nnc(-n2[se]c3ccccc3c2=O)s1 | 18.6 | 19.4 | 36.8 | 
Cc1cccc(-c2nnc(-n3[se]c4ccccc4c3=O)s2)c1 | 14.8 | 17.8 | 19.9 | 
O=c1c2ccccc2[se]n1-c1nnc(-c2ccc(F)cc2)s1 | 21.1 | 42.9 | 61.5 | 
O=c1c2ccccc2[se]n1-c1nnc(-c2ccc(Br)cc2)s1 | 39.1 | 68.2 | 43.3 | 
O=c1c2ccccc2[se]n1-c1nnc(-c2ccccc2Cl)s1 | 10.1 | 40.2 | 4.43 | 
